Source: a melting point compilation (Tetko et al.; mined from patent text by program, amines drawn as free bases though some values may be those of a salt)

Row | Compound | melting point [°C]
1 | CC(C)(C)C1=CC(O)(C(F)(F)F)C(=O)C(C(C)(C)C)=C1 (stereo not given) | 58 to 61
2 | CC(C)(CCCOc1ccccc1)C(=O)O | 151 to 152
3 | CCOC(=O)c1sc(N)nc1-c1cccc(C)c1 | 183 to 184
4 | CC[C@H](NC(=O)c1cc(F)ccc1NS(=O)(=O)c1cccc2cccnc12)c1ccccc1 | 163
5 | CCOCc1cc(OC)c(-c2ccc(C[C@H](NC(=O)c3c(F)cccc3F)C(=O)OCC)cc2)c(OC)c1 | 87 to 89
6 | CCOC(=O)/C=C(C)/C=C/C=C(C)/C=C/c1c(C)oc(C)c1C | 89 to 91
7 | Fc1cc(F)c2c(Nc3c(Cl)ccc4c3OCO4)ncnc2c1 | 234 to 237
8 | CN(C)CCc1c(-c2ccc3ccccc3c2)[nH]c2ccccc12 | 185 to 186
9 | COc1nc(C)cnc1NS(=O)(=O)c1cccnc1-c1ccc(COC(C)C)cc1 | 123 to 124
10 | CCOC(=O)CN(C)S(=O)(=O)c1c(C(=O)OC)sc2cc(C)ccc12 | 86 to 87
11 | COC(=O)C1=C(C)Nc2ccccc2NC1c1cccc(Cl)c1Cl (stereo not given) | 181 to 182
12 | N#CCCNC(=O)c1cccc(-c2cccc3nn(Cc4cccc(C(F)(F)F)c4)cc23)c1 | 187 to 188
13 | NC(CSc1ccccc1N)=NO | 80
14 | CCCCOc1cc2ncnc(N3CCc4ccc(Cl)cc43)c2cc1OC | 126 to 132
15 | CN1C(=O)CN=C(c2ccccc2)c2cc(CN)ccc21 | 201
16 | CC=C1OCC2(CO1)COC(=CC)OC2 (stereo not given) | 30
17 | Cc1ccc(S(=O)(=O)OCC(NC(=O)OC(C)(C)C)C(C)C)cc1 (stereo not given) | 85
18 | Cc1oc(-c2ccccc2)nc1COc1ccc(Cn2cc(/C=C/C(=O)O)cn2)cc1 | 186 to 187
19 | C[C@@H]1O[C@](/C=C/C2CC2)(C(F)(F)F)c2c(ccc3c2OCO3)NC1=O (relative stereo) | 236 to 237
20 | CN(Cc1ccccc1)c1sc(-c2ccncc2)c2c1C(=O)CC2 | 145 to 147
21 | CC(C)(C)C1=NN(c2ccc(C(=O)O)cc2)C(c2cccc([N+](=O)[O-])c2)C1 (stereo not given) | 235
22 | Cc1cc(C)c2ncc([N+](=O)[O-])c(-c3ccccc3Cl)c2c1 | 130 to 131
23 | O=C1C(O)OCN1c1cccc(C(F)(F)F)c1 (stereo not given) | 75 to 76
24 | CCOC(=O)c1ccc(OCc2ccccc2)c(OCc2ccccc2)c1 | 68 to 69

Row | Compound | melting point [°C]
25 | COC(=O)[C@H](Cc1ccccc1)NC(=S)Cc1cc(C)ccc1C | 63.5 to 64
26 | O=C(O)c1nc2ccccc2n(Cc2ccccc2)c1=O | 149 to 150
27 | Nc1c(Cl)cc(C(O)CNCCCCCCOCCCc2cncc(CC(=O)O)c2)cc1Cl (stereo not given) | 191 to 192
28 | NCC1(C(=O)O)CC(c2ccccc2)Cc2c(O)cccc21 (stereo not given) | 110 to 112
29 | COc1cc2c(c(C(C)(C)C)c1)OC(=O)C2 | 117 to 118
30 | Cc1ccccc1C(=O)N1CCC(=O)c2ccc(Cl)cc21 | 106 to 108
31 | CC(=O)OCCC1CCC2C3CCC4CCCCC4(C)C3CCC12C (stereo not given) | 123 to 125
32 | COc1ccc(-c2ccc(OC)c(C34CC5CC(CC(C5)C3)C4)c2)cc1C12CC3CC(CC(C3)C1)C2 | 288 to 289
33 | c1ccc2c(c1)NCS2 | 60 to 62
34 | CCOC(=O)c1ccc(OCCCCCCCCCCC2c3c(c4ccccc4c4ccccc34)-c3c2c2ccccc2c2ccccc32)cc1 | 122 to 124
35 | COc1cc(Nc2c(C#N)cnc3cc(-c4ccc(CN5CCOCC5)cn4)ccc23)c(Cl)cc1Cl | 220 to 222
36 | CCOC(=O)C=Cc1csc(-c2ccc(OC)c(C(C)(C)C)c2)c1 | 119 to 120
37 | O=C1CC(c2cccc(-n3ccnc3)c2)=Nc2cc(N3C[C@@H](O)[C@@H](O)C3)c(-c3ccc(F)cc3)cc2N1 | 244
38 | CCOC(=O)C(C)Oc1ccc2c(c1)N(C)C(=O)N(c1ccc(Cl)cc1)S2(=O)=O (stereo not given) | 111 to 112
39 | Cc1nccc2c1ccc(=O)n2C | 203 to 205
40 | O=[N+]([O-])c1cc(Cl)c(N=C=S)c(Cl)c1 | 74 to 77
41 | O=C(c1cccnc1)N1CCC(c2cccc(Cl)c2)=N1 | 124 to 126
42 | O=C(O)C1CCN(Cc2ccccc2)CC1 | 167 to 168
43 | CCCn1nc(CC)c(C(=O)O)c1Cc1ccc(-c2ccccc2-c2nnn[nH]2)cc1 | 229
44 | CN(C(=O)COc1nnc(-c2ccco2)s1)c1ccccc1 | 94
45 | Cc1c(NC(=O)c2ccc(-c3ccc4c(c3)OCO4)cc2F)ccc2cc(CN3CCCC3)cnc12 | 181 to 182
46 | CC(C)(C)C(=O)Oc1ccc(C(=O)CBr)cc1OC(=O)C(C)(C)C | 64 to 66
47 | COc1ccc2c(c1)C(=O)C(=O)C1=C2OC2(CCN(Cc3ccc(F)cc3)CC2)CS1 | 219 to 221
48 | CCc1c(-c2ccc(OCc3ccccc3)cc2)c2cc(COC)c3cccc1n32 | 111 to 113

Row | Compound | melting point [°C]
49 | Cc1ccc(C=C2CCc3cc(OCCc4c[nH]cn4)ccc3C2=O)s1 | 69 to 70
50 | CCCc1c(OCCCc2ccc3cc(OC)c(OC)cc3c2)ccc(C(=O)OCc2ccccc2)c1O | 94 to 96
51 | CCNC(=O)C1CCN(c2cc(-c3ccc(Cl)cc3)nc3ccccc23)CC1 | 231 to 233
52 | CC(=O)c1cn(C(c2ccccc2)(c2ccccc2)c2ccccc2)cn1 | 158 to 160
53 | Cc1nc(-c2cc(C(C)(C)C)c3c(c2)C(C)(C)CO3)no1 | 81 to 82
54 | Cc1cc(C)nc(NC(=O)NS(=O)(=O)c2ccccc2C(=O)N(C)C)n1 | 166 to 168
55 | CC(C)c1ccc([N+](=O)[O-])c(C(C)C)c1NC(=O)CN1CCN(CCSc2nc3ccccc3o2)CC1 | 143 to 145
56 | CC(C)(C)c1cc(/C=C/C(=O)O)n(Cc2ccc(C(F)(F)F)cc2Cl)n1 | 175 to 176
57 | CN(C)C=Nc1[nH]nc(NCCNC(=O)OC(C)(C)C)c1C#N | 158 to 160
58 | CCOC(=O)c1cn(C(=O)c2ccccc2)c2sc(-c3ccc(OC)cc3)c(CBr)c2c1=O | 124 to 126
59 | N#Cc1cc(Br)cc(C(F)(F)F)n1 | 88.5
60 | CCCCCCCCCCCCCCCC(=O)N1C[C@H](O)C[C@H]1C(=O)OCCCCCCCCCCCC | 39 to 44
61 | COC(=O)c1ccc(NN2C(=O)C(C)=C(C)C2=O)cc1C(=O)Nc1nc(OC)nc(OC)n1 | 123 to 127
62 | Cc1ccc(S(=O)(=O)OCC2(CO)OC(n3ccc(=O)[nH]c3=O)C(O)C2OCc2ccccc2)cc1 (stereo not given) | 195 to 197
63 | O=S1(=O)CCC(c2cc(F)ccc2F)(S(=O)(=O)c2ccc(Cl)cc2)CC1 | 204 to 206
64 | COC(=O)NC1(Cl)C=CC=CN1CC(COc1cccc2ccccc12)OC(=O)OC (stereo not given) | 133 to 135
65 | Cc1cc2c(=O)c3ccccc3oc2c2c1OC(C(=O)O)C2 (stereo not given) | 292 to 295
66 | CCOC(=O)C(=CNc1ncnc2ccc(N3CCN(C)CC3)cc12)C(=O)OCC | 154 to 159
67 | CSc1ccc(-n2c(-c3ccccn3)nc(SC)c(C#N)c2=O)cc1 | 158 to 161
68 | O=[N+]([O-])c1cnn(-c2c(Cl)cc(Cl)cc2Cl)c1Cl | 78 to 84
69 | Brc1ccc(-c2nc3n(c2-c2ccc(Br)cc2)CCS3)cc1 | 208 to 210
70 | Cc1oc(-c2ccccc2)nc1COc1ccc(C(=O)O)cc1 | 190 to 191
